Measured values published in patent US20020026053A1, “Novel 3-(substituted) -2- indolinones compounds and use thereof as inhibitors of protein kinase activity” (priority 1997, published 2002).

Biological target: T1, EGFR (Homo sapiens, UniProt P00533)
T1 construct: endogenous in cells; host or cells: A431 cells (lysate, captured with SUMO1 anti-EGFR antibody)
Experiment: Biochemical EGFR Assay
Set-up: concentration or dose not given beside the values
Conditions: protocol P.167
In short: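 EGFR from A431 lysate was captured on anti-EGFR-coated wells and preincubated 30 min with compound (diluted 1:10 in TBS) at room temperature. After ATP/MnCl2 phosphorylation for 5 min, the reaction was stopped with EDTA. Phosphotyrosine was detected by ELISA (anti-phosphotyrosine, peroxidase conjugate, ABTS) at 410 nm.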

T1 sequence (P00533 25-1210): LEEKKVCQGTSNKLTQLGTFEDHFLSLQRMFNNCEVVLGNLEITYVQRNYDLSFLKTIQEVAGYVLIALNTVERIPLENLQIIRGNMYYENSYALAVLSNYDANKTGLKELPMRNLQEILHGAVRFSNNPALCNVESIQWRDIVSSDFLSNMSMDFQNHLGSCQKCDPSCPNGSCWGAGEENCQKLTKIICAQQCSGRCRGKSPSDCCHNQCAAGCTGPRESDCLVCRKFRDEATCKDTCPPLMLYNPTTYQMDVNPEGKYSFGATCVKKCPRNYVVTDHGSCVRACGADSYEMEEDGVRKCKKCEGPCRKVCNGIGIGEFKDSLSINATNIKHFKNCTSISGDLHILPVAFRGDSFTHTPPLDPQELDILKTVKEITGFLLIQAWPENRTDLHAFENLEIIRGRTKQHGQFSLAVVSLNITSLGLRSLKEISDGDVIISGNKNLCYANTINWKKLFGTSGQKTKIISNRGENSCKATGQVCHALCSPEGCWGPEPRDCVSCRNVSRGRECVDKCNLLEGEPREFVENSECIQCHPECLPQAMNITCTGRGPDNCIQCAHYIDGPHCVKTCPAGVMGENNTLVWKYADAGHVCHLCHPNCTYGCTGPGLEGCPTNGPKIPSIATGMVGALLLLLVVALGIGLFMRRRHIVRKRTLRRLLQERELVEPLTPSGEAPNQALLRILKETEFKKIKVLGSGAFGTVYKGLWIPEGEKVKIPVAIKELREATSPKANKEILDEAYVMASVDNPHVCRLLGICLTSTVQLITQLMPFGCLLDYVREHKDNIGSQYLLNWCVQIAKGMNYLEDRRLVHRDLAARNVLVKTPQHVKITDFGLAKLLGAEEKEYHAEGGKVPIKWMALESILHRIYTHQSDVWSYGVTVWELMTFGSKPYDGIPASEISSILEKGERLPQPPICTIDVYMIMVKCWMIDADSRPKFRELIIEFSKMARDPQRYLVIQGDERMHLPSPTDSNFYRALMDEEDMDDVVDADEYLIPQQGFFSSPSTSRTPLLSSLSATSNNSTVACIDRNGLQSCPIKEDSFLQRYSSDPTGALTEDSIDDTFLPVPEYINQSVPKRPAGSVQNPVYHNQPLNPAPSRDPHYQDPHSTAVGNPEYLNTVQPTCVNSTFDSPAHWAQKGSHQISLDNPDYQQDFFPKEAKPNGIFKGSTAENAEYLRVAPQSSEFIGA

Compound	Biochem EGFR % Inhibition (P.167)
COC1CCCN1C=C1C(=O)Nc2c(Br)cc(Br)cc21 (racemic) [10740/A04]	5.2%
COC1CCCN1C=C1C(=O)Nc2ccc(I)cc21 (racemic) [10740/B04]	36.9%
O=C1Nc2c(Br)cc(Br)cc2C1=Cc1cnc2ccccc2c1 [10740/A02]	−2.4%
O=C1Nc2c(Br)cc(Br)cc2C1=Cc1ccnc2ccccc12 [10740/A03]	8.2%
O=C1Nc2c(Br)cc(Br)cc2C1=Cc1ccsc1 [10740/A05]	30.3%
O=C1Nc2c(Br)cc(Br)cc2C1=Cc1ccc2ccccc2n1 [10740/A06]	13.1%
Cn1cc(C=C2C(=O)Nc3c(Br)cc(Br)cc32)c2ccccc21 [10740/A07]	18.7%
Cc1[nH]c2ccccc2c1C=C1C(=O)Nc2c(Br)cc(Br)cc21 [10740/A08]	−7.9%
O=C1Nc2c(Br)cc(Br)cc2C1=Cc1cc(Br)cs1 [10740/A10]	21.9%
CCCCOc1ccc(C=C2C(=O)Nc3c(Br)cc(Br)cc32)cc1 [10740/A11]	26.0%
O=C1Nc2ccc(I)cc2C1=Cc1cnc2ccccc2c1 [10740/B02]	46.1%
O=C1Nc2ccc(I)cc2C1=Cc1ccnc2ccccc12 [10740/B03]	40.1%
O=C1Nc2ccc(I)cc2C1=Cc1ccsc1 [10740/B05]	30.7%
O=C1Nc2ccc(I)cc2C1=Cc1ccc2ccccc2n1 [10740/B06]	44.4%
Cn1cc(C=C2C(=O)Nc3ccc(I)cc32)c2ccccc21 [10740/B07]	48.9%
Cc1[nH]c2ccccc2c1C=C1C(=O)Nc2ccc(I)cc21 [10740/B08]	34.8%
O=C1Nc2ccc(I)cc2C1=Cc1cc(Br)cs1 [10740/B10]	39.9%
CCCCOc1ccc(C=C2C(=O)Nc3ccc(I)cc32)cc1 [10740/B11]	48.1%
Cc1c(Br)ccc2c1C(=Cc1cnc3ccccc3c1)C(=O)N2 [10740/C02]	15.6%
Cc1c(Br)ccc2c1C(=Cc1ccnc3ccccc13)C(=O)N2 [10740/C03]	7.2%
COC1CCCN1C=C1C(=O)Nc2ccc(Br)c(C)c21 (stereo not drawn) [10740/C04]	7.8%
Cc1c(Br)ccc2c1C(=Cc1ccsc1)C(=O)N2 [10740/C05]	3.5%
Cc1c(Br)ccc2c1C(=Cc1ccc3ccccc3n1)C(=O)N2 [10740/C06]	18.2%
Cc1c(Br)ccc2c1C(=Cc1cn(C)c3ccccc13)C(=O)N2 [10740/C07]	5.0%

Compound	Biochem EGFR % Inhibition (P.167)
Cc1[nH]c2ccccc2c1C=C1C(=O)Nc2ccc(Br)c(C)c21 [10740/C08]	10.7%
Cc1c(Br)ccc2c1C(=Cc1cc(Br)cs1)C(=O)N2 [10740/C10]	21.9%
CCCCOc1ccc(C=C2C(=O)Nc3ccc(Br)c(C)c32)cc1 [10740/C11]	18.7%
CNS(=O)(=O)c1ccc2c(c1)C(=Cc1cnc3ccccc3c1)C(=O)N2 [10740/D02]	0.0%
CNS(=O)(=O)c1ccc2c(c1)C(=Cc1ccnc3ccccc13)C(=O)N2 [10740/D03]	−6.9%
CNS(=O)(=O)c1ccc2c(c1)C(=CN1CCCC1OC)C(=O)N2 (stereo not drawn) [10740/D04]	−1.2%
CNS(=O)(=O)c1ccc2c(c1)C(=Cc1ccsc1)C(=O)N2 [10740/D05]	7.4%
CNS(=O)(=O)c1ccc2c(c1)C(=Cc1ccc3ccccc3n1)C(=O)N2 [10740/D06]	5.8%
CNS(=O)(=O)c1ccc2c(c1)C(=Cc1cn(C)c3ccccc13)C(=O)N2 [10740/D07]	−3.0%
CNS(=O)(=O)c1ccc2c(c1)C(=Cc1c(C)[nH]c3ccccc13)C(=O)N2 [10740/D08]	−5.7%
CNS(=O)(=O)c1ccc2c(c1)C(=Cc1cc(Br)cs1)C(=O)N2 [10740/D10]	9.9%
CCCCOc1ccc(C=C2C(=O)Nc3ccc(S(=O)(=O)NC)cc32)cc1 [10740/D11]	19.3%
O=C1Nc2ccc(S(=O)(=O)Nc3ccc(C(F)(F)F)cc3)cc2C1=Cc1cnc2ccccc2c1 [10740/E02]	−7.7%
O=C1Nc2ccc(S(=O)(=O)Nc3ccc(C(F)(F)F)cc3)cc2C1=Cc1ccnc2ccccc12 [10740/E03]	24.6%
COC1CCCN1C=C1C(=O)Nc2ccc(S(=O)(=O)Nc3ccc(C(F)(F)F)cc3)cc21 (stereo not drawn) [10740/E04]	12.3%
O=C1Nc2ccc(S(=O)(=O)Nc3ccc(C(F)(F)F)cc3)cc2C1=Cc1ccsc1 [10740/E05]	29.1%
O=C1Nc2ccc(S(=O)(=O)Nc3ccc(C(F)(F)F)cc3)cc2C1=Cc1ccc2ccccc2n1 [10740/E06]	0.0%
Cn1cc(C=C2C(=O)Nc3ccc(S(=O)(=O)Nc4ccc(C(F)(F)F)cc4)cc32)c2ccccc21 [10740/E07]	2.7%
Cc1[nH]c2ccccc2c1C=C1C(=O)Nc2ccc(S(=O)(=O)Nc3ccc(C(F)(F)F)cc3)cc21 [10740/E08]	3.1%
O=C1Nc2ccc(S(=O)(=O)Nc3ccc(C(F)(F)F)cc3)cc2C1=Cc1cc(Br)cs1 [10740/E10]	33.0%
CCCCOc1ccc(C=C2C(=O)Nc3ccc(S(=O)(=O)Nc4ccc(C(F)(F)F)cc4)cc32)cc1 [10740/E11]	8.8%
O=C1Nc2ccc(S(=O)(=O)N3CCOCC3)cc2C1=Cc1cnc2ccccc2c1 [10740/F02]	5.8%
O=C1Nc2ccc(S(=O)(=O)N3CCOCC3)cc2C1=Cc1ccnc2ccccc12 [10740/F03]	16.8%
COC1CCCN1C=C1C(=O)Nc2ccc(S(=O)(=O)N3CCOCC3)cc21 (stereo not drawn) [10740/F04]	11.1%

Compound	Biochem EGFR % Inhibition (P.167)
O=C1Nc2ccc(S(=O)(=O)N3CCOCC3)cc2C1=Cc1ccsc1 [10740/F05]	14.8%
O=C1Nc2ccc(S(=O)(=O)N3CCOCC3)cc2C1=Cc1ccc2ccccc2n1 [10740/F06]	19.9%
Cn1cc(C=C2C(=O)Nc3ccc(S(=O)(=O)N4CCOCC4)cc32)c2ccccc21 [10740/F07]	−4.2%
Cc1[nH]c2ccccc2c1C=C1C(=O)Nc2ccc(S(=O)(=O)N3CCOCC3)cc21 [10740/F08]	5.0%
O=C1Nc2ccc(S(=O)(=O)N3CCOCC3)cc2C1=Cc1cc(Br)cs1 [10740/F10]	9.5%
CCCCOc1ccc(C=C2C(=O)Nc3ccc(S(=O)(=O)N4CCOCC4)cc32)cc1 [10740/F11]	5.4%
O=C1Nc2ccc(CCCl)cc2C1=Cc1cnc2ccccc2c1 [10740/G02]	−9.4%
O=C1Nc2ccc(CCCl)cc2C1=Cc1ccnc2ccccc12 [10740/G03]	19.5%
COC1CCCN1C=C1C(=O)Nc2ccc(CCCl)cc21 (stereo not drawn) [10740/G04]	7.6%
O=C1Nc2ccc(CCCl)cc2C1=Cc1ccsc1 [10740/G05]	18.7%
O=C1Nc2ccc(CCCl)cc2C1=Cc1ccc2ccccc2n1 [10740/G06]	−1.2%
Cn1cc(C=C2C(=O)Nc3ccc(CCCl)cc32)c2ccccc21 [10740/G07]	27.9%
Cc1[nH]c2ccccc2c1C=C1C(=O)Nc2ccc(CCCl)cc21 [10740/G08]	−9.1%
O=C1Nc2ccc(CCCl)cc2C1=Cc1cc(Br)cs1 [10740/G10]	1.9%
CCCCOc1ccc(C=C2C(=O)Nc3ccc(CCCl)cc32)cc1 [10740/G11]	−3.4%
Cc1c(Br)cc(Br)c2c1C(=Cc1cnc3ccccc3c1)C(=O)N2 [10740/H02]	−9.1%
Cc1c(Br)cc(Br)c2c1C(=Cc1ccnc3ccccc13)C(=O)N2 [10740/H03]	16.0%
COC1CCCN1C=C1C(=O)Nc2c(Br)cc(Br)c(C)c21 (stereo not drawn) [10740/H04]	−21.0%
Cc1c(Br)cc(Br)c2c1C(=Cc1ccsc1)C(=O)N2 [10740/H05]	−4.4%
Cc1c(Br)cc(Br)c2c1C(=Cc1ccc3ccccc3n1)C(=O)N2 [10740/H06]	4.8%
Cc1c(Br)cc(Br)c2c1C(=Cc1cn(C)c3ccccc13)C(=O)N2 [10740/H07]	−5.3%
Cc1[nH]c2ccccc2c1C=C1C(=O)Nc2c(Br)cc(Br)c(C)c21 [10740/H08]	−24.3%
Cc1c(Br)cc(Br)c2c1C(=Cc1cc(Br)cs1)C(=O)N2 [10740/H10]	−25.5%
CCCCOc1ccc(C=C2C(=O)Nc3c(Br)cc(Br)c(C)c32)cc1 [10740/H11]	0.9%
